Results from PMC5635026, “Homo-PROTACs: bivalent small-molecule dimerizers of the VHL E3 ubiquitin ligase to induce self-degradation” (Nature Communications, 2017).
Where two headings read alike, the source gives them in different places.

Key:
pVHL30 = pVHL30 (Homo sapiens, UniProt P40337); assay: Immunoblot of pVHL30 protein level in HeLa cells after compound treatment; type: cell-based; parameters: endogenous in cells; host or cells: HeLa; details: 10 h, read-out: pVHL30 band quantification normalized to 0.1% DMSO; for remaining activity at 1 µM: DMSO = 100, Fig. 4a
Chain of pVHL30 (P40337 whole entry): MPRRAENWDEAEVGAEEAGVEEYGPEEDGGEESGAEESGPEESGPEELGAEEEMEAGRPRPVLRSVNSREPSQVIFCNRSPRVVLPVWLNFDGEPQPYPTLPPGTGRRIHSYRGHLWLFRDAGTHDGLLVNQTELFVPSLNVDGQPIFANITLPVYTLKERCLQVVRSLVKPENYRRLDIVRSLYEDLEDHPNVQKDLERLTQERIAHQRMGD
Protocol: (§1) Cell culture. Human cell lines HeLa, U2OS and HEK 293, purchased from ATCC, were propagated in DMEM supplemented with 10% fetal bovine serum (FBS), L- glutamine, 100 μg ml^−1 of penicillin/streptomycin at 37 °C and 5% CO2. Cells were maintained for no more than 30 passages. All cell lines were routinely tested for mycoplasma contamination using MycoAlert kit from Lonza. For compound treatment experiments, cells were transferred in six-well plates with either 3 × 10^5 or 5 × 10^5 cells per well in 2 ml of media. At 80% confluence, cells were treated with compounds at the desired concentration, reaching final DMSO concentration of 0.1% v/v. Cells were incubated at 37 °C and 5% CO2 for the desired time before harvesting.
(§2) Immunoblotting. Cells were lysed in lysis buffer (20 mM Tris pH 8, 150 mM NaCl, 1% Triton × 100) and a protease inhibitor cocktail (Roche) per 10 ml buffer. For protein extracts, the dishes were placed on ice. The media was aspirated and the tissue layer washed twice with ice-cold phosphate buffer saline (PBS). Lysis buffer (120 μl) was added and the cells detached from the surface with a cell scraper. After removal of the insoluble fraction by centrifugation, the protein concentration of the supernatant was determined by Pierce™ Coomassie (Bradford) Protein Assay Kit. Protein extracts were fractionated by SDS-PAGE on 4–12% Tris-Acetate NuPage® Novex® (Life Technologies) polyacrylamide gels and transferred to a nitrocellulose membrane using wet transfer. The membrane was then blocked with 5 % w/v Bovine serum albumin (BSA) in Tris-buffered saline (TBS) with 0.1% w/v Tween-20. For detecting proteins the following primary antibodies in the given concentrations were used: anti-β-Actin (Cell Signaling Technology, 4970S, 13E5) 1:2000, anti-VHL (Cell Signaling Technology, #68547) 1:1000, anti-Hif-1α (BD Biosciences, 610959, clone 54) 1:1,000, anti-hydroxy-HIF-1α (Hyp564) (Cell Signaling Techonology; #3434) 1:1,000, anti-PHD2 (Bethyl Laboratories; A300-322A) 1:1,000, anti-PHD3 (Bethyl Laboratories; A300-327A) 1:1000, anti-CRBN (Proteintech; 11435-1-AP) 1:1,000. Following incubation with a horseradish peroxidase-conjugated secondary antibody (Cell Signaling Technology), the signal was developed using enhanced chemiluminescence (ECL) Western Blotting Detection Kit (Amersham) on Amersham Hyperfilm ECL film (Amersham). Band quantification was performed using ImageJ software and reported as relative amount as ratio of the each protein band relative to the lane’s loading control. The values obtained were then normalized to 0.1% DMSO vehicle control. See Supplementary Fig. 12 for full-scanned images of western-blots shown in the main text figures.

pVHL19 = pVHL19 (Homo sapiens, UniProt P40337); assay: Immunoblot of pVHL19 protein level in HeLa cells after compound treatment; type: cell-based; parameters: endogenous in cells; host or cells: HeLa; details: 10 h, read-out: pVHL19 band quantification normalized to 0.1% DMSO
Chain of pVHL19 (P40337 54-213): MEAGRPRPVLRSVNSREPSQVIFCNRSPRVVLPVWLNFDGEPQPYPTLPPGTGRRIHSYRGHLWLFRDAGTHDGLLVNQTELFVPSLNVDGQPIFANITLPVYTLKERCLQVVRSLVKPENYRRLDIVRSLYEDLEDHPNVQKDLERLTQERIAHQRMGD
Chain of pVHL19 (Q15369 whole entry partner): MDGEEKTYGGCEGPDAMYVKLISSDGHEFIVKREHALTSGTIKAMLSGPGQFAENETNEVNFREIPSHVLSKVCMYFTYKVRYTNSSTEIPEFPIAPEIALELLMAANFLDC
Chain of pVHL19 (Q15370 whole entry partner): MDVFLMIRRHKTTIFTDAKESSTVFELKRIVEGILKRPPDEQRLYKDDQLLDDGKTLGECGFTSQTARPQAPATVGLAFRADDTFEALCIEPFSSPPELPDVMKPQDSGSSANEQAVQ
Protocol: as §1, §2

remaining activity at 1 µM (pVHL30)	remaining activity at 1 µM (pVHL19; 1 µM, DMSO = 100, Fig. 4a)	Compound	remaining pVHL30 protein level at 1 µM (pVHL30)	remaining activity at 1 µM (pVHL19)
		CC(=O)N[C@H](C(=O)N1C[C@H](O)C[C@H]1C(=O)NCc1ccc(-c2scnc2C)cc1OCCOCCOCCOCCOCCOc1cc(-c2scnc2C)ccc1CNC(=O)[C@@H]1C[C@@H](O)CN1C(=O)[C@@H](NC(C)=O)C(C)(C)C)C(C)(C)C [CMP106]	114%	93%
126%	97%	Cc1ncsc1-c1ccc(CNC(=O)[C@@H]2C[C@@H](O)CN2C(=O)[C@@H](NC(=O)C2(C#N)CC2)C(C)(C)C)c(OCCOCCOCCOCCOCCOc2cc(-c3scnc3C)ccc2CNC(=O)[C@@H]2C[C@@H](O)CN2C(=O)[C@@H](NC(=O)C2(C#N)CC2)C(C)(C)C)c1 [CMP108]		
110%	89%	CC(=O)N[C@H](C(=O)N1C[C@H](O)C[C@H]1C(=O)NCc1ccc(-c2scnc2C)cc1OCCOCCOCCOCCOCCOCC(=O)N[C@H](C(=O)N1C[C@H](O)C[C@H]1C(=O)NCc1ccc(-c2scnc2C)cc1)C(C)(C)C)C(C)(C)C [CMP112]		
		Cc1ncsc1-c1ccc(CNC(=O)[C@@H]2C[C@@H](O)CN2C(=O)[C@@H](NC(=O)COCCOCCOCCOCCOCCOc2cc(-c3scnc3C)ccc2CNC(=O)[C@@H]2C[C@@H](O)CN2C(=O)[C@@H](NC(=O)C2(C#N)CC2)C(C)(C)C)C(C)(C)C)cc1 [CMP113]	121%	111%
